In US9107942B2, “Methods of diagnosing and treating fibrosis” (University of Rochester, priority 2008, dated 2015):
Entries after “also recorded” stand apart in the source; their conditions may differ.

How the values were obtained:
YY1 expression [1] = experiment: YY1 immunoblot in TGF-β-stimulated WI-38 cells pre-treated with NF-κB inhibitor; type: cell-based, human; conditions: WI-38 cells pre-treated with 5 μM for one hour, then 10 ng/ml TGF-β in serum-free DMEM
Procedure: FIG. 12A is a graph of the relative fold induction of YY1 mRNA expression in WI-38 cells transfected with a wild-type YY1 promoter construct (“YY1”). FIG. 12B is a graph of the relative fold induction of YY1 mRNA expression in WI-38 cells transfected with a mutant YY1 promoter contruct that has a disrupted NF-κB binding site (“mutant YY1”). In both cases, the cells were also transiently co-transfected with a vector control (“pSG5”) or 2.5 μg of NF-κB (“p65”) plasmid by electroporation, and then treated with PBS or 10 ng/ml of TGF-β for 24 hours. Data are presented with standard errors derived from at least three independent experiments performed in triplicate. ***P<0.001 (untreated pSG5 vs. untreated p65; TGF-β-treated pSG5 vs. TGF-β-treated p65). FIG. 12C is an immunoblot of WI-38 cells pre-treated with 5 μM of Bay 11-7085 (an NF-κB inhibitor) for one hour and then treated with 10 ng/ml of TGF-β for the indicated times in serum-free DMEM. Extracts from whole cells were immunoblotted with anti-YY1 or anti-β-actin antibody.
(§1) Cells or lung tissues were solubilized in lysis buffer (50 mM Tris/HCl (pH 8.0), 150 mM NaCl, 0.1% SDS, 0.5% sodium deoxycholate, 0.02% Na3N, 1% Nonidet P40, 1 mM PMSF, and 2 μg/ml aprotinin). Protein concentrations were determined by a BCA assay. Protein samples (20 μg) were separated in 8-16% SDS/PAGE gels and transferred onto a nitrocellulose membrane. […]

lung fibroblasts = conditions: cited from earlier work
human tumor cells = conditions: cited from earlier work
YY1 expression [2] = experiment: YY1 expression in stimulated WI-38 lung fibroblasts (immunoblot, quantitative PCR); type: cell-based, human; conditions: WI-38 cells; for YY1 transcript levels: quantitative PCR
Procedure: (§2) FIGS. 7A and 7B are immunoblots of human WI-38 cells (FIG. 7A) and mouse MLg2908 cells (FIG. 7B) treated with TGF-β. After serum starvation for 24 hours, cells were treated with 10 ng/ml of TGF-β for the indicated times in serum-free DMEM. Extracts from whole cells were subjected to immunoblot analysis with anti-YY1 or anti-β-actin antibody. FIGS. 7C and 7D are graphs showing the relative fold induction of YY-1 mRNA expression, detected by quantitative PCR, in WI-38 cells (FIG. 7C) and MLg2908 cells (FIG. 7D) treated with TGF-β. FIGS. 7E and 7F are graphs relating to the YY1 promoter activity in YY1-Luc-transfected WI-38 cells (FIG. 7E) and YY1-Luc-transfected MLg2908 cells (FIG. 7F) treated with PBS or TGF-β for 24 hours. The full-length YY1 promoter-luciferase reporter (YY1-LUC) was transfected into the cells by electroporation. Relative light units (RLU) were measured with a luminometer. Fold changes result from the RLU of stimulated cells divided by the RLU of non-stimulated cells. The data are presented with standard errors derived from at least three independent experiments performed in triplicate. *p<0.05 and **p<0.01 by the Student's t-test.
(§3) FIGS. 9A and 9B are immunoblots of human WI-38 cells (FIG. 9A) and mouse MLg2908 cells (FIG. 9B) treated with TNF-α. After serum starvation for 24 hours, cells were treated with 10 ng/ml of TNF-α for the indicated times in serum-free DMEM. Extracts from whole cells were subjected to immunoblot analysis with anti-YY1 or anti-β-actin antibody. FIGS. 9C and 9D are graphs showing the relative fold induction of YY-1 mRNA expression, detected by quantitative PCR, in WI-38 cells (FIG. 9C) and MLg2908 cells (FIG. 9D) treated with TGF-β. FIGS. 9E and 9F are graphs relating to the YY1 promoter activity in YY1-Luc-transfected WI-38 cells (FIG. 9E) and YY1-Luc-transfected MLg2908 cells (FIG. 9F) treated with TNF-α for 8 hours. The full-length YY1 promoter-luciferase reporter (YY1-LUC) was transfected into the cells by electroporation. Relative light units (RLU) were measured with a luminometer. Fold changes result from the RLU of stimulated cells divided by the RLU of non-stimulated cells. The data are presented with standard errors derived from at least three independent experiments performed in triplicate. *p<0.05, **p<0.01, and ***p<0.001 by the Student's t-test.
After serum starvation for 24 hours, cells were treated with 40 μg/ml of silica for the indicated time periods in serum-free DMEM. Extracts from WI-38 (FIG. 10A) or MLg2908 (FIG. 10B) cells were immunoblotted with anti-YY1 or anti-β-actin antibodies.
FIG. 18 is an immunoblot showing YYI in WI-38 cells that were unstimulated (“Resting”) or treated with IL-1β ([…]). Immunoblots were performed on Day 1 and Day 2 using anti-YY1 and anti-GAPDH antibodies.
Total RNA from lung tissue and lung fibroblasts was extracted using TRIzol® reagent (Invitrogen). Then, 0.5-1 μg of total RNA was reverse-transcribed using oligo dT as a primer. Quantitative PCR was performed using an iQ5 Biorad device. Data were analyzed by the 2^−Δ(Δ/CT^) method and normalized to the expression of the GAPDH housekeeping gene.
as §1

B cells = conditions: cited from earlier work
YY1 expression [3] = experiment: YY1 expression in stimulated MLg2908 lung fibroblasts (immunoblot, quantitative PCR); type: cell-based, mouse; conditions: MLg2908 cells; for YY1 transcript levels: quantitative PCR; for YY1 expression: serum-free DMEM, 10 ng/ml cytokine or 40 μg/ml silica, immunoblot
Procedure: as §2
as §3, with “The data are presented with standard errors derived from at least three independent experiments performed in triplicate. *p<0.05, **p<0.01, and ***p<0.001 by the Student's t-test.” left out
Total RNA from lung tissue and lung fibroblasts was extracted using TRIzol® reagent (Invitrogen). […] Quantitative PCR was performed using an iQ5 Biorad device. Data were analyzed by the 2^−Δ(Δ/CT^) method and normalized to the expression of the GAPDH housekeeping gene.
Cells or lung tissues were solubilized in lysis buffer (50 mM Tris/HCl (pH 8.0), 150 mM NaCl, 0.1% SDS, 0.5% sodium deoxycholate, 0.02% Na3N, 1% Nonidet P40, 1 mM PMSF, and 2 μg/ml aprotinin). Protein concentrations were determined by a BCA assay. […]

YY1 expression [4] = experiment: YY1 immunoblot in MRC5 human adult fibroblasts; type: cell-based; conditions: MRC5 cells, 10 ng/ml for 8 hours
Procedure: (§4) FIG. 8A is an immunoblot of whole cell extracts from MRC5 cells treated with TGF-β for 8 hours. FIG. 8B is a graph of the relative light units of YY1-Lluc-transfected MRC5 cells treated with phosphate-buffered saline (“0”) or TGF-β (“10”) for 24 hours. The data are presented with standard errors derived from at least three independent experiments performed in triplicate. *p<0.05 by the Student's t-test.
(§5) After serum starvation for 24 hours, MRC5 cells were treated with 10 ng/ml of TGF-β for 8 hours or 24 hours in serum-free DMEM. Extracts from whole cells treated with TGF-β for 8 hours were subjected to immunoblot analysis with anti-YY1 or anti-β-actin antibody. […] MRC5 cells transfected with the full-length YY1 promoter-luciferase reporter (YY1-LUC) by electroporation were treated with PBS or TGFβ for 24 hours, and the relative light units (RLU) were measured with a luminometer.

YY1 promoter [5] = experiment: YY1 promoter-luciferase reporter (YY1-LUC) in MRC5 cells; type: cell-based, human; conditions: YY1-LUC-transfected MRC5 cells, 24 hours
Procedure: as §4, §5

YY1 promoter [6] = experiment: YY1 promoter-luciferase reporter (YY1-LUC) in MLg2908 cells; type: cell-based, mouse; conditions: YY1-Luc-transfected MLg2908 cells
Procedure: as §2, with “The data are presented with standard errors derived from at least three independent experiments performed in triplicate. *p<0.05 and **p<0.01 by the Student's t-test.” left out
(§6) FIGS. 9A and 9B are immunoblots of human WI-38 cells (FIG. 9A) and mouse MLg2908 cells (FIG. 9B) treated with TNF-α. […] FIGS. 9C and 9D are graphs showing the relative fold induction of YY-1 mRNA expression, detected by quantitative PCR, in WI-38 cells (FIG. 9C) and MLg2908 cells (FIG. 9D) treated with TGF-β. […] Relative light units (RLU) were measured with a luminometer. […]

YY1 promoter [7] = experiment: YY1 promoter-luciferase reporter (YY1-LUC) in WI-38 cells; type: cell-based, human; conditions: YY1-Luc-transfected WI-38 cells
Procedure: as §2, with “The data are presented with standard errors derived from at least three independent experiments performed in triplicate. *p<0.05 and **p<0.01 by the Student's t-test.” left out
as §6

YY1 expression [8] = experiment: YY1 western blot in IC-21 alveolar macrophages; type: cell-based; conditions: TNF-α 10 ng/ml or silica 20 μg/ml, two days
Procedure: FIG. 11 is a western blot of unstimulated (“resting”) IC-21 alveolar macrophages or IC-21 cells stimulated with TNF-α (10 ng/ml) or silica (20 μg/ml). After two days, the cells were harvested and YY1 expression was determined using anti-YY1 and anti-GAPDH antibodies.
In addition to the indirect effects of lung inflammation, crystalline silica can activate cells directly through distinct molecular pathways (Hornung et al., “Silica Crystals and Aluminum Salts Activate the NALP3 Inflammasome Through Phagosomal Destabilization,” Nat. Immunol. 9(8):847-56 (2008); Dostert et al., “Innate Immune Activation Through Nalp3 Inflammasome Sensing of Asbestos and Silica,” Science 320(5876):674-77 (2008), each of which is hereby incorporated by reference in its entirety). Therefore, whether silica particles directly regulate YY1 expression in fibroblasts was tested by incubating cells for up to 8 hours in vitro with a fixed concentration of silica.

[9] = serum-free DMEM, 10 ng/ml cytokine or 40 μg/ml silica, immunoblot

Compound	YY1 transcript levels (YY1 expression [3])	YY1 expression (YY1 expression [3])	YY1 promoter activity (YY1 promoter [6])	YY1 promoter activity (YY1 promoter [7])	YY1 transcript levels (YY1 expression [2])	YY1 expression (YY1 expression [2]; [9])	also measured
CC(C)(C)c1ccc(S(=O)(=O)/C=C/C#N)cc1 [Bay11-7085]							YY1 expression (YY1 expression [1]): abolished
[N]=O [Nitric oxide]							YY1 expression (lung fibroblasts): inhibit; YY1 expression (human tumor cells): inhibit
IL-1β: cytokine used to treat WI-38 cells							YY1 expression (YY1 expression [2]; Day 1 and Day 2, immunoblot): upregulated
Rituximab: anti-CD20 antibody used for treating B cell non-Hodgkin's lymphoma							NF-κB expression (B cells): diminished; YY1 expression (B cells): diminished
TGF-β: profibrotic cytokine used to stimulate lung fibroblasts	upregulated	upregulated	significantly increased	significantly increased	upregulated	upregulated	YY1 expression (YY1 expression [4]): up-regulated; YY1-LUC activity (YY1 promoter [5]): up-regulated
TNF-α	upregulated	increased	upregulated	upregulated	upregulated	increased	YY1 expression (YY1 expression [8]): neither silica nor TNF-α affected; also recorded: slightly decreased
